According to PubChem BioAssay AID2060898 (Molecular Pharmacology Branch, DTP, NCI, 2025):
One block for each molecule: values may come before it.

Tested on: 616215-338-R-J1-PDC complex spheroid viability
Experiment: Anticancer human tumor 616215-338-R-J1-PDC patient-derived colon adenocarcinoma cell line growth inhibition [RAS]
Settings: for IC50: curve of first compound; for viability, T/C: stronger effect = lower value
Text: RAS pathway inhibitors in Combinations in Complex Spheroids
A high-throughput screen of multi-cell type tumor spheroids was designed to identify active combinations of RAS pathway inhibitors and targeted small molecules. Complex spheroids include a stromal component modeled by human endothelial cells (HUVEC) and fibroblasts modeled by human mesenchymal stem cells (MSCs). The concentration ranges selected for each drug and investigational agent were based upon clinically achievable concentrations if the clinical Cmax of the agent was known.
Compounds. The drugs and investigational agents: abemaciclib (NSC768073), cobimetinib (NSC768068), divarasib (GDC6063, NSC841802), docetaxel (NSC628503), GDC-1971 (RLY-1971, NSC841576), gemcitabine (NSC613327), inavolisib (NSC800729), ipatasertib (NSC767898), KB-0742 (NSC834161), MRTX-1133 (NSC836407), osimertinib (NSC779217), RMC-4630 (NSC839698), RMC-6236 (NSC851965), RMC-6291 (NSC852671), Ro-3306 (NSC812927), sapanisertib (NSC764658), SN-38 (NSC673596), staurosporine (NSC755774), SY5609 (NSC837396), and tovorafenib (DAY101, NSC766906), were obtained from the National Cancer Institute (NCI) Developmental Therapeutics Program Chemical Repository. The FDA-approved anticancer drug set is available from the NCI Developmental Therapeutics Program. […] The stock solutions were prepared in dimethyl sulfoxide (DMSO, Sigma-Aldrich, St. Louis, MO, cat. D2650) at 800-fold the tested concentration and stored at -70 degrees C prior to their use. All drugs and investigational agents were tested over a range starting from a high concentration at or near the clinical Cmax and decreasing in half-log increments. If the clinical Cmax for an agent had not been determined, the highest concentration tested was 10 microM.
Cell Culture. All cells were maintained in an incubator at 37 degrees C and 5% CO2 with 95% humidity. The PDC lines were cultured according to standard operating procedures established by the NCI PDMR. All PDCs were thawed and cultured in Matrigel-coated flasks prepared with a working solution of 1X Ham's F-12 nutrient mix, without supplementation (Invitrogen, Waltham, MA, cat. 11765054), 100 U/mL penicillin-streptomycin (Invitrogen, cat. 15140122), and 2.5% Matrigel (Corning Inc., Corning, NY, cat. 354248) for the first three passages. The 362531-283-R-J2-PDC and 782815-120-R-J1-PDC lines were cultured in 6C/Colon 1B media, which includes advanced DMEM/F-12 (Thermo Fisher Scientific, cat. 12634028), 10 mM HEPES (Thermo Fisher Scientific, cat. 15630080), 1X GlutaMAX supplement (Thermo Fisher Scientific, cat. 35050061), 0.1 mg/mL primocin (InvivoGen, San Diego, CA, cat. ant-pm-2), 10% defined fetal bovine serum, heat inactivated (HyClone Laboratories Inc., Logan, UT, cat. SH30070.03HI), 50% L-WRN conditioned media (ATCC, cat. CRL-3276), 1.25 mM N-Acetyl-L-cysteine (Sigma-Aldrich, cat. A9165), 10 mM nicotinamide (Sigma-Aldrich, cat. N0636), 1X B-27 supplement (Thermo Fisher Scientific, cat. 17504044), 1X N-2 supplement (Thermo Fisher Scientific, cat. 17502048), 50 ng/mL human EGF (Thermo Fisher Scientific, cat. PHG0311), and 10 microM Y-27632 dihydrochloride (Tocris Bioscience, cat. 1254). The K12877-001-R-J1-PDC line was cultured in 6I media, which includes all 6C/Colon 1B media plus 10 ng/mL human FGF-10 (PeproTech, cat. 100-26), 1 ng/mL human FGF-2 (PeproTech, cat. 100-18B), 1 µM prostaglandin E2 (Tocris Bioscience, cat. 2296), […] hydrocortisone (Sigma-Aldrich, cat. H4001), and […] bovine insulin (Sigma-Aldrich, cat. I6634). The K86415-001-R-J1-PDC line was cultured in 6D media, which includes all 6C/Colon 1B media components minus the L-WRN conditioned media. The 485176-168-R4-J1-PDC was cultured in PANC media, which includes all 6C/Colon 1B media plus 100 ng/mL human FGF-10 (PeproTech, cat. 100-26), 500 nM SB-431542 (Selleckchem, cat. S1067), and 10 nM gastrin (Tocris Bioscience, cat. 3006). […]

[1] = second compound 0.0316 µM, first compound 0.0316 µM
[2] = second compound 0.0316 µM, first compound 0.1 µM
[3] = second compound 0.0316 µM, first compound 0.316 µM
[4] = second compound 0.0316 µM, first compound 1 µM
[5] = second compound 0.1 µM, first compound 0.0316 µM
[6] = second compound 0.1 µM, first compound 0.1 µM
[7] = second compound 0.1 µM, first compound 0.316 µM
[8] = second compound 0.1 µM, first compound 1 µM
[9] = second compound 0.316 µM, first compound 0.0316 µM
[10] = second compound 0.316 µM, first compound 0.1 µM
[11] = second compound 0.316 µM, first compound 0.316 µM
[12] = second compound 0.316 µM, first compound 1 µM
[13] = second compound 1 µM, first compound 0.0316 µM
[14] = second compound 1 µM, first compound 0.1 µM
[15] = second compound 1 µM, first compound 0.316 µM
[16] = second compound 1 µM, first compound 1 µM
[17] = second compound 3.16 µM, first compound 0.0316 µM
[18] = second compound 3.16 µM, first compound 0.1 µM
[19] = second compound 3.16 µM, first compound 0.316 µM
[20] = second compound 3.16 µM, first compound 1 µM
[21] = second compound 10 µM, first compound 0.0316 µM
[22] = second compound 10 µM, first compound 0.1 µM
[23] = second compound 10 µM, first compound 0.316 µM
[24] = second compound 10 µM, first compound 1 µM
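Further: spheroids exposed to agents for seven days before viability readout.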
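Wherever viability, T/C is given: 100% = DMSO vehicle control viability.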

IC50 (second compound 0.0316 µM): > 1000 nM | IC50 (second compound 0.1 µM): > 1000 nM | IC50 (second compound 0.316 µM): 874 nM | IC50 (second compound 1 µM): 693 nM | IC50 (second compound 3.16 µM): 175 nM | IC50 (second compound 10 µM): 30.9 nM
Compound: CCN1CCN(Cc2ccc(Nc3ncc(F)c(-c4cc(F)c5nc(C)n(C(C)C)c5c4)n3)nc2)CC1 + C#Cc1c(F)ccc2cc(O)cc(-c3ncc4c(N5CC6CCC(C5)N6)nc(OCC56CCCN5CC(F)C6)nc4c3F)c12
viability, T/C (second compound 0.0316 µM, first compound 0.00316 µM): 96.4% | viability, T/C (second compound 0.0316 µM, first compound 0.01 µM): 117% | viability, T/C [1]: 120% | viability, T/C [2]: 108% | viability, T/C [3]: 131% | viability, T/C [4]: 53.2% | viability, T/C (second compound 0.1 µM, first compound 0.00316 µM): 97.9% | viability, T/C (second compound 0.1 µM, first compound 0.01 µM): 110% | viability, T/C [5]: 113% | viability, T/C [6]: 124% | viability, T/C [7]: 129% | viability, T/C [8]: 50.8% | viability, T/C (second compound 0.316 µM, first compound 0.00316 µM): 105% | viability, T/C (second compound 0.316 µM, first compound 0.01 µM): 110% | viability, T/C [9]: 121% | viability, T/C [10]: 120% | viability, T/C [11]: 112% | viability, T/C [12]: 41.7% | viability, T/C (second compound 1 µM, first compound 0.00316 µM): 120% | viability, T/C (second compound 1 µM, first compound 0.01 µM): 118% | viability, T/C [13]: 130% | viability, T/C [14]: 88% | viability, T/C [15]: 74.2% | viability, T/C [16]: 39.7% | viability, T/C (second compound 3.16 µM, first compound 0.00316 µM): 90.8% | viability, T/C (second compound 3.16 µM, first compound 0.01 µM): 98.1% | viability, T/C [17]: 70% | viability, T/C [18]: 58.2% | viability, T/C [19]: 44.6% | viability, T/C [20]: 30.9% | viability, T/C (second compound 10 µM, first compound 0.00316 µM): 76.1% | viability, T/C (second compound 10 µM, first compound 0.01 µM): 58.5% | viability, T/C [21]: 51.9% | viability, T/C [22]: 35.5% | viability, T/C [23]: 39.3% | viability, T/C [24]: 23.9%

IC50 (second compound 0.0316 µM): > 10000 nM | IC50 (second compound 0.1 µM): > 10000 nM | IC50 (second compound 0.316 µM): 9710 nM | IC50 (second compound 1 µM): 5990 nM | IC50 (second compound 3.16 µM): 3610 nM | IC50 (second compound 10 µM): 758 nM
Compound: C[C@@H](NC(=O)c1ncnc(N)c1Cl)c1ncc(C(=O)Nc2cc(C(F)(F)F)c(Cl)cn2)s1 + C#Cc1c(F)ccc2cc(O)cc(-c3ncc4c(N5CC6CCC(C5)N6)nc(OCC56CCCN5CC(F)C6)nc4c3F)c12
viability, T/C [1]: 120% | viability, T/C [2]: 109% | viability, T/C [3]: 109% | viability, T/C [4]: 109% | viability, T/C (second compound 0.0316 µM, first compound 3.16 µM): 86.8% | viability, T/C (second compound 0.0316 µM, first compound 10 µM): 55.2% | viability, T/C [5]: 104% | viability, T/C [6]: 111% | viability, T/C [7]: 108% | viability, T/C [8]: 109% | viability, T/C (second compound 0.1 µM, first compound 3.16 µM): 90.8% | viability, T/C (second compound 0.1 µM, first compound 10 µM): 52.2% | viability, T/C [9]: 111% | viability, T/C [10]: 113% | viability, T/C [11]: 121% | viability, T/C [12]: 117% | viability, T/C (second compound 0.316 µM, first compound 3.16 µM): 87.9% | viability, T/C (second compound 0.316 µM, first compound 10 µM): 49% | viability, T/C [13]: 109% | viability, T/C [14]: 112% | viability, T/C [15]: 108% | viability, T/C [16]: 91.5% | viability, T/C (second compound 1 µM, first compound 3.16 µM): 68.3% | viability, T/C (second compound 1 µM, first compound 10 µM): 35.8% | viability, T/C [17]: 99.3% | viability, T/C [18]: 111% | viability, T/C [19]: 72.3% | viability, T/C [20]: 82.2% | viability, T/C (second compound 3.16 µM, first compound 3.16 µM): 52.2% | viability, T/C (second compound 3.16 µM, first compound 10 µM): 24.3% | viability, T/C [21]: 84.3% | viability, T/C [22]: 69.7% | viability, T/C [23]: 67.2% | viability, T/C [24]: 46.4% | viability, T/C (second compound 10 µM, first compound 3.16 µM): 24.8% | viability, T/C (second compound 10 µM, first compound 10 µM): 18.7%
